In patent US20120095055A1, “HEXAHYDROCYCLOPENTYL[f]INDAZOLE 5-HYDROXYMETHYL ETHANOLS AND DERIVATIVES THEREOF AS SELECTIVE GLUCOCORTICOID RECEPTOR MODULATORS” (Merck Sharp & Dohme, Corp., priority 2009, published 2012):

Molecular target: T1, human GR (Homo sapiens, UniProt P04150)
T1 construct: naturally expresses the human GR; endogenous in cells
T1 sequence (P04150 1-777): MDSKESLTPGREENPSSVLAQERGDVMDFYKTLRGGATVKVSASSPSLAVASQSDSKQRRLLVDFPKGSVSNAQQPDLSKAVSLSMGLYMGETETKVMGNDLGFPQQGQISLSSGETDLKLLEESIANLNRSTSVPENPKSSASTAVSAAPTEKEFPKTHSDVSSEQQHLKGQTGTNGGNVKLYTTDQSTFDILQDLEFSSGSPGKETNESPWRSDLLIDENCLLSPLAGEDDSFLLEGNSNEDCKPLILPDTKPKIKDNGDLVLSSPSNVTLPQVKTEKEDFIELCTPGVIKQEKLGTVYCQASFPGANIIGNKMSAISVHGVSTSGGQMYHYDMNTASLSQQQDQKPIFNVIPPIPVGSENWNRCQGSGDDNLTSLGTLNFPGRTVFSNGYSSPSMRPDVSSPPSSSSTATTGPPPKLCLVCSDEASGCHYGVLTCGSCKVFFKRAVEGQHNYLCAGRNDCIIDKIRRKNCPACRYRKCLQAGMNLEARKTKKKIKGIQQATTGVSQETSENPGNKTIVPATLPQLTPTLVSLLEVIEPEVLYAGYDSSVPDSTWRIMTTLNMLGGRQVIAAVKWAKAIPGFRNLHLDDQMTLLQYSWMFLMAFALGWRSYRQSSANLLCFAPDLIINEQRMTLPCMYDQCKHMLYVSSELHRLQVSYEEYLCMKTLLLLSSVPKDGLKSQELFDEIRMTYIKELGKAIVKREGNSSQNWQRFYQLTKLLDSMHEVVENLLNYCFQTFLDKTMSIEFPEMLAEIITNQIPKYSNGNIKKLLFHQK
Test: Trans-Activation Modulation of Glucocorticoid Receptor Assay (GRAMMER), MMTV-LUC reporter in A549 cells
Type: cell-based
Details: for Emax: A549, Emax relative to the activity obtained with 300 nM dexamethasone, read-out: Transactivation A549 Cells GRAMMER Emax (%); for EC50: inflection point (IP), MMTV-LUC reporter, read-out: Transactivation A549 Cells GRAMMER IP; for Transactivation A549 Cells GRAMMER Emax (%): Emax relative to the activity obtained with 300 nM dexamethasone
Excerpt: This assay assesses the ability of test compounds to control transcription from the MMTV-LUC reporter gene in lung adenocarcinoma A549 cells or HeLa cells, a human […] cell line that naturally expresses the human GR. The assay measures induction of a modified MMTV LTR/promoter linked to the LUC reporter gene.
The routine transient assay consists of plating 7,000-25,000 cells/well of a white, clear-bottom 96-well plate. Alternatively, 384-well plates can be used at a cell concentration of 10,000/well. The media that the cells are plated in is “exponential growth medium” which consists of phenol red-free RPMI1640 containing 10% FBS, 4 mM L-glutamine, 20 mM HEPES, 10 ug/mL human insulin, and 20 ug/mL gentamicin. Incubator conditions are 37° C. and 5% CO2. The transfection is done in batch mode. The cells are trypsinized and counted to the right cell number in the proper amount of fresh media. It is then gently mixed with the FuGene6/DNA mix and plated onto the 96 or 384-well plate, all the wells receive 100 uL or 40 uL, respectively, of medium+lipid/DNA complex then incubated 37° C. overnight. The transfection cocktail consists of serum-free OptiMEM, FuGene6 reagent and DNA. The manufacturer's (Roche Biochemical) protocol for cocktail setup is as follows: The lipid to DNA ratio is approximately 2.5:1 and the incubation time is 20 min at room temperature. Sixteen to 24 hours after transfection, the cells are treated with dexamethasone to a final concentration of 10 nM as well as the compound of interest, such that final DMSO (vehicle) concentration is equal to or less than 1%. Each plate also contains samples that are treated with 10 nM dexamethasone alone, which is used as the 100% activity control. The cells are exposed to the compounds for 24 hours. After 24 hours, the cells are lysed by a Promega cell culture lysis buffer for approximately 30 min and then the luciferase activity in the extracts is assayed in the 96-well format luminometer. In 384-well format, Steady-Glo (Promega) or Steady-Lite (PerkinElmer) can be used by adding an equal volume of reagent to the media present in each well. Activity induced by 10 nM dexamethasone alone is set at 100% activity. Antagonist activity is calculated by determining the decrease in dexamethasone-induced activity in response to compound treatment relative to samples that were treated with dexamethasone alone. Results are expressed as % inhibition of 10 nM dexamethasone activity or as fold of 10 nM dexamethasone activity. This transactivation assay can be performed in an agonist and antagonist mode to identify these different activities.
Activity of test compounds is calculated as the Emax relative to the activity obtained with 300 nM dexamethasone. Activity of test compounds is calculated as the Emax relative to the activity obtained with 300 nM DEX. The exemplified tissue selective glucocorticoid receptor modulators of the present invention display agonist activity in this assay of greater than 5% and less than 100%, and maximal transactivation activity less then maximal transrepression activity. […]

| SMILES | Emax | EC50 | Transactivation A549 Cells GRAMMER Emax (%) |
| --- | --- | --- | --- |
| C[C@]12Cc3cnn(-c4ccc(F)cc4)c3C=C1CC[C@@]2(CO)CC1OC(=O)c2ccccc21 (stereo partly drawn) [Example 11, 3-{[(4αS,5R)-1-(4-fluorophenyl)-5-(hydroxymethyl)-4α-methyl-1,4,4α,5,6,7,7a,8-octahydrocyclopenta[f]indazol-5-yl]methyl}-2-benzofuran-1(3H)-one] | 41.8% | 0.332 µM |  |
| C[C@]12Cc3cnn(-c4ccc(F)cc4)c3C=C1CC[C@@]2(CO)CC(O)c1ncccc1F (single isomer, unassigned) [Example 10b] |  | 0.0124 µM | 67.0% |
| C[C@]12Cc3cnn(-c4ccccc4)c3C=C1CC[C@@]2(CO)CC(O)c1cccnc1 (single isomer, unassigned) [Example 29b] |  | 0.121 µM | 13.7% |
| COc1ccc(C(O)C[C@]2(CO)CCC3=Cc4c(cnn4-c4ccc(F)cc4)C[C@@]32C)nc1 (single isomer, unassigned) [Example 24a] | 7.6% | 0.47 µM |  |
| Cc1cccc(C(O)C[C@]2(CO)CCC3=Cc4c(cnn4-c4ccc(F)cc4)C[C@@]32C)c1 (single isomer, unassigned) [Example 5b] |  | 0.0236 µM | 58.4% |
| C[C@]12Cc3cnn(-c4ccc(F)cc4)c3C=C1CC[C@@]2(CO)CC(O)c1ccncc1 (single isomer, unassigned) [Example 17b] |  | 0.0775 µM | 35.6% |
| C[C@]12Cc3cnn(-c4cccc(F)c4)c3C=C1CC[C@@]2(CO)CC(O)c1cccnc1 (single isomer, unassigned) [Example 27a] |  | 0.357 µM | 6.8% |
| Cc1cccc(C(O)C[C@]2(CO)CCC3=Cc4c(cnn4-c4ccc(F)cc4)C[C@@]32C)c1 (single isomer, unassigned) [Example 5a] | 65.5% | 0.0788 µM |  |
| C[C@]12Cc3cnn(-c4ccc(F)cc4)c3C=C1CC[C@@]2(CO)CC(O)c1ccccn1 (single isomer, unassigned) [Example 1b] |  | 0.0264 µM | 56.0% |
| COc1ccc(C(O)C[C@]2(CO)CCC3=Cc4c(cnn4-c4ccc(F)cc4)C[C@@]32C)nc1 (single isomer, unassigned) [Example 24b] |  | 1 µM | 4.5% |
| C[C@]12Cc3cnn(-c4ccc(F)cc4)c3C=C1CC[C@@]2(CO)CC(O)c1cccnc1 (single isomer, unassigned) [Example 15b] |  | 0.149 µM | 39.3% |
| C[C@]12Cc3cnn(-c4cccc(F)c4)c3C=C1CC[C@@]2(CO)CC(O)c1cccnc1 (single isomer, unassigned) [Example 27b] |  | 0.634 µM | 15.4% |
| C[C@]12Cc3cnn(-c4ccccc4)c3C=C1CC[C@@]2(CO)CC(O)c1ccccn1 (single isomer, unassigned) [Example 23a] | 39.4% | 0.0497 µM |  |
| C[C@]12Cc3cnn(-c4ccc(F)cc4)c3C=C1CC[C@@]2(CO)CC(O)c1ncccc1F (single isomer, unassigned) [Example 10a] | 56.6% | 0.0237 µM |  |
| C[C@]12Cc3cnn(-c4ccc(F)cc4)c3C=C1CC[C@@]2(CO)CC(O)C1CCCCC1 (single isomer, unassigned) [Example 18a, 1-cyclohexyl-2-[(4αS)-1-(4-fluorophenyl)-5-(hydroxymethyl)-4α-methyl-1,4,4α,5,6,7-hexahydrocyclopenta[f]indazol-5-yl]ethanol] | 55.3% | 0.0223 µM |  |
| C[C@]12Cc3cnn(-c4ccc(F)cc4)c3C=C1CC[C@@]2(CO)CC(O)c1ccc(F)cn1 (single isomer, unassigned) [Example 22a] | 63.2% | 0.0288 µM |  |
| Cc1ccc(C(O)C[C@]2(CO)CCC3=Cc4c(cnn4-c4ccc(F)cc4)C[C@@]32C)cc1 (single isomer, unassigned) [Example 2a] |  | 0.485 µM | 46.6% |
| CC(C)C(O)C[C@]1(CO)CCC2=Cc3c(cnn3-c3ccc(F)cc3)C[C@@]21C (single isomer, unassigned) [Example 14a] | 25% | 0.479 µM |  |
| C[C@]12Cc3cnn(-c4ccc(F)cc4)c3C=C1CC[C@@]2(CO)CC(O)c1ccccc1Cl (single isomer, unassigned) [Example 3b] |  | 0.0167 µM | 130.3% |
| C[C@]12Cc3cnn(-c4ccc(F)cc4)c3C=C1CC[C@@]2(CO)CC(O)c1ccccc1Cl (single isomer, unassigned) [Example 3a] | 127% | 0.0388 µM |  |
| COc1cccnc1C(O)C[C@]1(CO)CCC2=Cc3c(cnn3-c3ccc(F)cc3)C[C@@]21C (single isomer, unassigned) [Example 21b] |  | 0.0402 µM | 64.8% |
| COc1cccnc1C(O)C[C@]1(CO)CCC2=Cc3c(cnn3-c3cccc(F)c3)C[C@@]21C (single isomer, unassigned) [Example 26b] |  | 0.653 µM | 4.3% |
| C[C@]12Cc3cnn(-c4ccc(F)cc4)c3C=C1CC[C@@]2(CO)CC(O)C1CC1 (single isomer, unassigned) [Example 20b, 1-cyclopropyl-2-[(4αS)-1-(4-fluorophenyl)-5-(hydroxymethyl)-4α-methyl-1,4,4α,5,6,7-hexahydrocyclopenta[f]indazol-5-yl]ethanol] |  | 0.808 µM | 11.3% |
| C[C@]12Cc3cnn(-c4ccccc4)c3C=C1CC[C@@]2(CO)CC(O)c1cccnc1 (single isomer, unassigned) [Example 29a] |  | 0.168 µM | 30.7% |
| C[C@]12Cc3cnn(-c4ccc(F)cc4)c3C=C1CC[C@@]2(CO)CC(O)c1cccc(C(F)(F)F)c1 (single isomer, unassigned) [Example 7b] |  | 0.0393 µM | 55.8% |
| C[C@]12Cc3cnn(-c4ccc(F)cc4)c3C=C1CC[C@@]2(CO)CC(O)c1ccncc1 (single isomer, unassigned) [Example 17a] | 26.4% | 0.101 µM |  |
| C[C@]12Cc3cnn(-c4ccc(F)cc4)c3C=C1CC[C@@]2(CO)CC(O)C(F)(F)F (single isomer, unassigned) [Example 28a] | 60.4% | 0.107 µM |  |
| C[C@]12Cc3cnn(-c4ccc(F)cc4)c3C=C1CC[C@@]2(CO)CC(O)c1cccc(Cl)c1 (stereo partly drawn) [Example 8, 1-(3-chlorophenyl)-2-[(4αS,5R)-1-(4-fluorophenyl)-5-(hydroxymethyl)-4α-methyl-1,4,4α,5,6,7-hexahydrocyclopenta[f]indazol-5-yl]ethanol] | 56% | 0.0322 µM |  |
